The source of these data is patent publication US20250346576A1, “KCNT1 INHIBITORS COMPRISING A PYRAZOLE CORE AND METHODS OF USE” (PRAXIS PRECISION MEDICINES, INC., priority 2022, published 2025).

pIC50: −log10 of the molar value.

This experiment addresses T1, KCNT1 (KNa1.1, Slack) (Homo sapiens, UniProt Q5JUK3).
T1 construct: expressed in transfected cells; host or cells: HEK-TREX (tetracycline inducible cell line)
T1 sequence (Q5JUK3 1-1230): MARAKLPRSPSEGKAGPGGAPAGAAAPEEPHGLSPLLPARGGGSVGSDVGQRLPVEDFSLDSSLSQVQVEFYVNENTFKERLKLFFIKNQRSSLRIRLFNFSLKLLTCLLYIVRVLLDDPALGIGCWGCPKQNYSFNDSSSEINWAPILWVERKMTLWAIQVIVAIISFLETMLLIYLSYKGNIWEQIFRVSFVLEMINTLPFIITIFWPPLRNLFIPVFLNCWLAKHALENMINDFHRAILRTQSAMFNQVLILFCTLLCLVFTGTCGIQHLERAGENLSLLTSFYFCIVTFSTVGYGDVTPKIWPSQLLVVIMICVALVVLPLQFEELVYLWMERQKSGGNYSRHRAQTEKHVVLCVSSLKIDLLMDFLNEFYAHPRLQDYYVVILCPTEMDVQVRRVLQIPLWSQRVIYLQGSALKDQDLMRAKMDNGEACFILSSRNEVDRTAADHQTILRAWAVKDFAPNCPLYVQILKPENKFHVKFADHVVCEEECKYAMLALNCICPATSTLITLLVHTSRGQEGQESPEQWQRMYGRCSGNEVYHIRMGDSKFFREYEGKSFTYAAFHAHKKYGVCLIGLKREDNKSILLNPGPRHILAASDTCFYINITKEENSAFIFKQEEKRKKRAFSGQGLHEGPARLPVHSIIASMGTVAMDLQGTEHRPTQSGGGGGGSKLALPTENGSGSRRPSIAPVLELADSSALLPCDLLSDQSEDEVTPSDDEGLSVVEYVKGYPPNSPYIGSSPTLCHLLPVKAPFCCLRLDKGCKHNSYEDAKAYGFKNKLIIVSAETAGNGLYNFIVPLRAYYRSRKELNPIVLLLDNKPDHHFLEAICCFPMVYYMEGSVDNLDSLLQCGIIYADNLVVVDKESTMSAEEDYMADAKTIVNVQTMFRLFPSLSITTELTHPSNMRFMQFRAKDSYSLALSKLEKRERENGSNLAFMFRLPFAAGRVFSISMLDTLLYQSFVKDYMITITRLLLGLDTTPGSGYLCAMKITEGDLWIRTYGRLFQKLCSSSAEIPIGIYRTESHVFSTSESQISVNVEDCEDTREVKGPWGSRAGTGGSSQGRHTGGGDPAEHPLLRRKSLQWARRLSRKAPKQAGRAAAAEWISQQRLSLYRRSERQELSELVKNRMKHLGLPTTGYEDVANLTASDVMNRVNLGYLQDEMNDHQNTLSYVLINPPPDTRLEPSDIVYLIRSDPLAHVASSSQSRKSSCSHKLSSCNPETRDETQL
The experiment in a line: KCNT1 patch clamp assay (SyncroPatch 384PE, tetracycline inducible HEK-TREX cell line). As to conditions: WT KCNT1, HEK-TREX cells, perforated patch, step from -80 mV to 0 mV, room temperature; read-out: WT (KCNT1 inhibition IC50). The experiment is classed as cell-based. On the procedure: Inhibition of KCNT1 (KNa1.1, Slack) was evaluated using a tetracycline inducible cell line (HEK-TREX). Currents were recorded using the SyncroPatch 384PE automated, patch clamp system. Pulse generation and data collection were performed with PatchController384 V1.3.0 and DataController384 V1.2.1 (Nanion Technologies). The access resistance and apparent membrane capacitance were estimated using built-in protocols. Current was recorded in perforated patch mode (10 μM escin) from a population of cells. The cells were lifted, triturated, and resuspended at 800,000 cells/ml. The cells were allowed to recover in the cell hotel prior to experimentation. Currents were recorded at room temperature. The external solution contained the following (in mM): NaCl 105, NMDG 40, KCl 4, MgCl2 1, CaCl2 5, and HEPES 10 (pH=7.4, Osmolarity ˜300 mOsm). The extracellular solution was used as the wash, reference, and compound delivery solution. The internal solution contained the following (in mM): NaCl 70, KF 70, KCl 10, EGTA 5, HEPES 5, and Escin 0.01 (pH=7.2, Osmolarity ˜295 mOsm). Escin is made at a 5 mM stock in water, aliquoted, and stored at −20° C. The compound plate was created at 2× concentrated in the extracellular solution. The compound was diluted to 1:2 when added to the recording well. The amount of DMSO in the extracellular solution was held constant at the level used for the highest tested concentration. A holding potential of −80 mV with a 100 ms step to 0 mV was used. Mean current was measured during the step to 0 mV. […] The average mean current from 3 sweeps was calculated and the percent inhibition of each compound was calculated. The percent inhibition as a function of the compound concentration was fit with a Hill equation to derive IC50, slope, minimum parameters, and maximum parameters. If KCNT1 inhibition was less than 50% at the highest tested concentration or if an IC50 could not be calculated, then a percent inhibition was reported in place of the IC50.
In this table, “A” indicates IC50 of less than or equal to 1 μM; “B” indicates inhibition of between 1 μM to 20 μM; and “C” indicates inhibition of greater than or equal to 20 μM.
(In general: In patch-clamp work, channel activity is measured electrically.)
What is called pIC50 is the negative decadic logarithm of the IC50, by convention in mol/L. On to `CC(NC(=O)c1cc(C(F)(F)F)nn1C)c1cc(-c2ccccc2)nn1C` (single isomer, unassigned) [Compound 1011], for which the pIC50 was 4.70 to 6.00.

As for `CC(C)c1cc(C(=O)NCc2cc(-c3ccnc(C(F)(F)F)c3)nn2C)n(C)n1` [Compound 1039], the negative logarithm of the IC50 (pIC50) was at least 6.00.

Consider `CC(NC(=O)c1cc(C(F)(F)F)nn1C)c1cc(-c2ccc(CO)nc2)nn1C` (stereo not shown) [Compound 1009], for which the pIC50 was at most 4.70.

As to `Cc1cc(-c2cc(CNC(=O)c3cc(C(F)(F)F)nn3C)n(C)n2)c(F)cn1` [Compound 1041], the pIC50 was at least 6.00.

`Cn1nc(-c2ccnc(C3CC3)c2)cc1CNC(=O)c1cc(C(F)(F)F)nn1C` [Compound 1038]: the pIC50 was at least 6.00.

As for `Cc1cc(-c2cc(C(C)NC(=O)c3cc(C(F)(F)F)nn3C)n(C)n2)ccn1` (single isomer, unassigned) [Compound 1005], the pIC50 was 4.70 to 6.00.

Take `CC(C)Oc1cc(C(C)NC(=O)c2cc(C(F)(F)F)nn2C)n(C)n1` (stereo not shown) [Compound 1031]: the pIC50 is at most 4.70.

With `Cn1nc(C(F)(F)F)cc1C(=O)NC1(c2cc(-c3ccnc(C(F)(F)F)c3)nn2C)CC1` [Compound 1035], the pIC50 was at least 6.00.

With `CC(NC(=O)c1cc(C(F)(F)F)nn1C)c1cc(Nc2ccccc2)nn1C` (stereo not shown) [Compound 1024], the pIC50 is 4.70 to 6.00.

As to `CC(NC(=O)c1cc(C(F)(F)F)nn1C)c1cc(-c2ccc(C(N)=O)cc2)nn1C` (stereo not shown) [Compound 1022], the pIC50 was at most 4.70.

Consider `CC(NC(=O)c1cc(C(F)(F)F)nn1C)c1cc(-c2ccncc2)nn1C` (single isomer, unassigned) [Compound 1003], for which the pIC50 is at most 4.70.

Regarding `CC(NC(=O)c1cc(C(F)(F)F)nn1C)c1cc(-c2ccc(C#N)nc2)nn1C` (stereo not shown) [Compound 1016], the pIC50 is at most 4.70.

Consider `Cc1c(-c2ccnc(C(F)(F)F)c2)nn(C)c1CNC(=O)c1cc(C(F)(F)F)nn1C` [Compound 1030], for which the pIC50 is at least 6.00.

As for `COc1cc(-c2cc(CNC(=O)c3cc(C(F)(F)F)nn3C)n(C)n2)ccn1` [Compound 1036], the pIC50 was at least 6.00.

In the case of `CCn1nc(-c2ccnc(C(F)(F)F)c2)cc1CNC(=O)c1cc(C(F)(F)F)nn1C` [Compound 1029], the pIC50 was at least 6.00.

Consider `Cn1nc(C(F)F)cc1C(=O)NC1(c2cc(-c3ccnc(C(F)(F)F)c3)nn2C)CC1` [Compound 1034], for which the negative logarithm of the IC50 (pIC50) is at least 6.00.

For `CC(NC(=O)c1cc(C(F)(F)F)nn1C)c1cc(-c2ccnc(C(F)(F)F)c2)nn1C` (single isomer, unassigned) [Compound 1001], the pIC50 was at least 6.00.

For the molecule `CC(NC(=O)c1cc(C(F)(F)F)nn1C)c1cc(-c2ccnc(C(F)(F)F)c2)nn1C` (stereo not shown) [Compound 1020], the pIC50 is at least 6.00.

For `CC(NC(=O)c1cc(C(F)(F)F)nn1C)c1cc(-c2ccc(C(F)(F)F)nc2)nn1C` (stereo not shown) [Compound 1018], the pIC50 is 4.70 to 6.00.

On to `CC(NC(=O)c1cc(C(F)(F)F)nn1C)c1cc(-c2ccncc2)nn1C` (single isomer, unassigned) [Compound 1008], for which the pIC50 is 4.70 to 6.00.

`Cn1nc(-c2ccnc(C(F)(F)F)c2)cc1CNC(=O)c1cc(C(F)F)nn1C` [Compound 1033]: the pIC50 was at least 6.00.

Regarding `CC(NC(=O)c1cc(C(F)(F)F)nn1C)c1cc(N(C)C2CCCC2)nn1C` (stereo not shown) [Compound 1027], the pIC50 is 4.70 to 6.00.

Consider `CC(NC(=O)c1cc(C(F)(F)F)nn1C)c1cc(-c2ccccc2)nn1C` (single isomer, unassigned) [Compound 1010], for which the pIC50 is 4.70 to 6.00.

For `CCOc1cc(-c2cc(CNC(=O)c3cc(C(F)(F)F)nn3C)n(C)n2)ccn1` [Compound 1037], the pIC50 is at least 6.00.

With `CC(NC(=O)c1cc(C(F)(F)F)nn1C)c1cc(-c2ccc(C#N)cc2)nn1C` (stereo not shown) [Compound 1021], the negative-log IC50 (pIC50) is 4.70 to 6.00.

For the molecule `Cc1ncc(-c2cc(C(C)NC(=O)c3cc(C(F)(F)F)nn3C)n(C)n2)cn1` (stereo not shown) [Compound 1012], the pIC50 was at most 4.70.

Turning to `CC(NC(=O)c1cc(C(F)(F)F)nn1C)c1cc(C(F)(F)F)nn1C` (single isomer, unassigned) [Compound 1015], the pIC50 was 4.70 to 6.00.

With `Cn1nc(-c2ccnc(C(F)(F)F)c2)cc1CNC(=O)c1ccccc1` [Compound 1040], the pIC50 is at least 6.00.

On to `Cn1nc(-c2ccnc(C(F)(F)F)c2)cc1CNC(=O)c1cc(C(F)(F)F)nn1C` [Compound 1019], for which the pIC50 was at least 6.00.

As for `CC(NC(=O)c1cc(C(F)(F)F)nn1C)c1cc(N2CCCCC2)nn1C` (stereo not shown) [Compound 1023], the pIC50 is 4.70 to 6.00.

Consider `CC(NC(=O)c1cc(C(F)(F)F)nn1C)c1cc(N(C)c2ccccc2)nn1C` (stereo not shown) [Compound 1025], for which the pIC50 is 4.70 to 6.00.

With `CC(NC(=O)c1cc(C(F)(F)F)nn1C)c1cc(Oc2ccccc2)nn1C` (stereo not shown) [Compound 1032], the pIC50 was 4.70 to 6.00.

In the case of `CCn1nc(-c2ccnc(C(F)(F)F)c2)cc1C(C)NC(=O)c1cc(C(F)(F)F)nn1C` (single isomer, unassigned) [Compound 1007], the pIC50 was at least 6.00.

For `CC(NC(=O)c1cc(C(F)(F)F)nn1C)c1cc(NC2CCCC2)nn1C` (stereo not shown) [Compound 1026], the pIC50 is at most 4.70.

On to `CCn1nc(-c2ccnc(C(F)(F)F)c2)cc1C(C)NC(=O)c1cc(C(F)(F)F)nn1C` (single isomer, unassigned) [Compound 1004], for which the pIC50 is at least 6.00.

Regarding `CC(NC(=O)c1cc(C(F)(F)F)nn1C)c1cc(C(F)(F)F)nn1C` (single isomer, unassigned) [Compound 1014], the pIC50 was 4.70 to 6.00.

Regarding `Cc1cccc(-c2cc(C(C)NC(=O)c3cc(C(F)(F)F)nn3C)n(C)n2)n1` (stereo not shown) [Compound 1017], the pIC50 was 4.70 to 6.00.

Take `COc1ccc(-c2cc(C(C)NC(=O)c3cc(C(F)(F)F)nn3C)n(C)n2)cn1` (stereo not shown) [Compound 1013]: the pIC50 is at least 6.00.

`Cc1cc(-c2cc(C(C)NC(=O)c3cc(C(F)(F)F)nn3C)n(C)n2)ccn1` (single isomer, unassigned) [Compound 1006]: the pIC50 is 4.70 to 6.00.

Turning to `CC(NC(=O)c1cc(C(F)(F)F)nn1C)c1cc(Cc2ccccc2)nn1C` (stereo not shown) [Compound 1028], the pIC50 is 4.70 to 6.00.
